Here are results for one compound from patent US20180074045A1, “SYSTEM AND METHOD FOR HIGH THROUGHPUT SCREENING OF CANCER CELLS” (CANNABICS PHARMACEUTICALS INC, priority 2015, published 2018).

The test concerns U87MG glioblastoma cells. The test can be described thus: Cell viability imaging, extracts with various THC to CBD ratios. Conditions: extracts with various THC to CBD ratio, adjusted to 5 μM THC, 24 hours, 96-well; FIG. 6. In kind it is cell-based, human. As for the experimental part:
Cells were harvested three days before exposure and seeded (about 50,000-200,000 cells/well) into a 24-well microplate. The medium was replaced in respective culture medium containing 0.5% FBS, and vehicle (DMSO) or cannabis extracts (1-10 μg/ml) were added to the medium for 24-48 hours in duplicates.
The effect of cannabinoid compounds on cell viability was measured using high-content screening analysis. For example, differentiation of subpopulations of cells within the same well was analysed by distinguishing: live versus necrotic cells, early apoptotic cells and late apoptotic cells.
Cells were imaged in ImageXpress micro (see FIG. 2), and analyzed using MetaXpress and the Cell Cycle module.
Reference is now made to FIG. 6 showing images of glioblastoma cell lines treated with selected cannabis extracts comprising various THC to CBD ratio. In this study, 10,000 U87MG glioblastoma cells were plated into a 96-well microplate and treated with vehicle (DMSO) or cannabis extracts. It is noted that the extracts were delectated to reach 5 μM THC. Cells were imaged after 24 hours using the ImageXpress micro.

In the case of `C=C(C)[C@@H]1CCC(C)=C[C@H]1c1c(O)cc(CCCCC)cc1O` [CBD, cannabidiol], the “U87MG glioblastoma cells viability” value is listed as “plays a role in reducing U87MG glioblastoma cells viability”.
